Test results taken from patent US10722547B2, “Compositions of medicinal plants for reducing the effects of aging, prevention and treatment of age-related neurodegenerative diseases, and treatment of anxiety and sleep disorders” (PharmacoGenetics Limited, priority 2016, dated 2020).

Assays:
D-galactose treated mice = assay: Loss of whiskers induced by D-galactose treatment; format: in vivo, male ICR mice; conditions: D-galactose 150 mg/kg daily with or without 120 mg/kg oral extract, 8 weeks; N=12 mice/group
Protocol: Chronic exposure to D-galactose is a widely studied aging model that causes shortened lifespan in Drosophila and housefly (Jordens et al 1999; Cui et al 2004), and brings about spatial memory deficit, degeneration in the hippocampus and increased oxidative damage in a D-galactose-induced accelerated-aging model of the mouse (Cui et al 2006). […] In the present study, this D-galactose model was applied to 10 week old male ICR mice (n=8-12 per group). The mice were administered daily with 150 mg/kg D-galactose by subcutaneous injection, accompanied by either daily oral administration of the vehicle (0.9% NaCl) in the D-galactose treated control group (“D-gal”), or daily oral administration of one of the BYPA, BYP, BYA, BPA, YPA, BY, BP and YP herbal extracts (120 mg/kg), for an exposure period of 8 weeks. […] The resultant levels of accelerated aging in the D-gal group, the various herbal extract-treatment groups, and the Veh group were assessed at the end of the 8-week exposure period based on five criteria: (i) body weight; (ii) deficit in spatial memory in the Y-maze test; (iii) levels of the pro-inflammatory cytokine TNF-alpha in the brain; (iv) levels of the pro-inflammatory cytokine IL-6 in the brain; and (v) levels of the oxidative stress marker MDA in the brain. […]

[1] = test system: D-galactose treated animals; conditions: cited from earlier work
mice [2] = assay: Locomotor activity test; format: in vivo, male ICR mice; conditions: 3 mg/kg diazepam oral; p<0.001 vs vehicle
Protocol: Locomotor activity test. Following the elevated plus-maze and holeboard tests, the Veh-treated mice, DZ-treated mice and variously herbal extract-treated mice were assessed for locomotor activity by means of the ZIL-2 apparatus (Beijing Institute of Materia Medica). The test apparatus, with dimensions of 60 cm×60 cm×12 cm, consisted of a transparent plastic cylindrical box equipped with three evenly spaced infrared beams with photodetectors. The number of transitions made across the infrared beams was recorded automatically over a period of 5 minutes. An increase or decrease in the number of transitions indicated a corresponding increase or decrease in the level of locomotor activity (Hui et al, 2002).

mice [3] = assay: Rotarod test; format: in vivo, male ICR mice; conditions: diazepam at 1 or 3 mg/kg oral; p<0.001 vs vehicle
Protocol: Rotarod test. Mice randomly separated into groups (n=15−20/group) were orally administered 35 minutes prior to the rotarod test with vehicle (“Veh”, viz. 0.9% NaCl), 1 or 3 mg/kg DZ, or 120 mg/kg of one of the one-, two-, three- or four-herb extracts. The rotarod test for muscle coordination was performed using a custom-built apparatus consisted of a cylinder (2.5 cm diameter) with a textured surface placed 0.5 m above the ground. Prior to oral Veh, DZ or herbal extract administration, the mice were first trained to stay for 2 min on the rotarod revolving at 16 rpm. In the test, the effect of Veh, DZ or herbal extract treatment was examined by placing the mouse on the rotarod and recording the length of time it managed to stay on the rotarod, with cut-off set at 2 min.

mice [4] = assay: Step-through passive avoidance test; format: in vivo, male ICR mice; conditions: diazepam at 1 or 3 mg/kg oral; p<0.001 vs vehicle
Protocol: Step-through passive avoidance test. Mice randomly separated into groups (n=15−20/group) were orally administered with vehicle (“Veh”, viz. 0.9% NaCl), 1 or 3 mg/kg DZ, or 120 mg/kg of one of the one-, two-, three- or four-herb extracts 35 minutes prior to training trials. The apparatus consisted of a two-chamber box (from Chinese Academy of Chinese Medical Science, Beijing) with one of the chambers being opaque (darkened) and the other transparent (lighted). In the training trials, each mouse was placed into the lighted chamber, and the door connecting the lighted and darkened chambers was opened 10 seconds later. […] In the actual test, after the mouse entered the darkened chamber, the door was closed and a 2-second electric foot shock of 0.4 mA was delivered through the grid floor. Ten seconds later the mouse was transferred from the darkened chamber back to its home cage. After an interval of 24 hours, it was returned to the lighted chamber. The door to the darkened chamber was opened 10 seconds later, and the time taken for the mouse to enter the darkened chamber was recorded as the ‘step-through latency’, with cut-off set at 300 seconds. A significant decrease in step-through latency observed with any group of animals compared to Veh-treated controls was indicative of impaired […] in the form of anterograde amnesia (Nazari-Serenj eh et al, 2011).

With O=C[C@H](O)[C@@H](O)[C@@H](O)[C@H](O)CO [D-gal, D-galactose] the “Loss of whiskers (% mice) 0 (no loss of whiskers)” value (D-galactose treated mice) was 50 % mice and the “Loss of whiskers (% mice) + (loss of whiskers)” value (D-galactose treated mice) was 50 % mice.

For O=C(O)CCCC[C@@H]1CCSS1 [R-α-lipoic acid], the “cognitive dysfunction and neurodegeneration” value ([1]; 100 mg/kg i.p., Cui 2006) is listed as “can ameliorate”.

In the case of C[C@H]1[C@H](C)CC[C@]2(C(=O)O)CC[C@]3(C)C(=CC[C@@H]4[C@@]5(C)C[C@@H](O)[C@H](O)[C@@](C)(CO)[C@@H]5CC[C@]43C)[C@H]12 [asiatic acid], the “elevated levels of brain ROS, TNF-alpha and IL-6” value ([1]; oral, 10 or 20 mg/kg, Chao et al 2015) is listed as “can reduce”.

With CN1C(=O)CN=C(c2ccccc2)c2cc(Cl)ccc21 [diazepam, Diazepam] the locomotor activity (mice [2]) was “significant reduction”, the “time of stay on the moving rotarod (muscle coordination)” value (mice [3]) was “significant reduction” and the “step-through latency (anterograde amnesia)” value (mice [4]) was “significant anterograde amnesia”.

In the case of CC(C)=CCC[C@](C)(O[C@@H]1O[C@H](CO)[C@@H](O)[C@H](O)[C@H]1O)[C@H]1CC[C@]2(C)[C@@H]1[C@H](O)C[C@@H]1[C@@]3(C)CC[C@H](O)C(C)(C)[C@@H]3[C@@H](O[C@@H]3O[C@H](CO)[C@@H](O)[C@H](O)[C@H]3O)C[C@]12C [ginsenoside Rg1], the “cognitive impairment and hippocampus senescence” value ([1]; 20 mg/kg i.p., Zhu et al 2014) is given as “can prevent”.
